Measured values from US4357344A, “Polybutylbenzylphenols and benzyl-3,4-methylenedioxybenzenes in insect population control” (The United States of America as represented by the …, priority 1979, dated 1982).

Legend:
flies (family Muscidae) [1] = test: Chemosterilancy tests (egg hatch and pupal development; Examples 6-9); assay type: in vivo
Experimental: (§1) The compound to be tested was administered in a standard fly food containing 6 parts of sugar, 6 parts of powdered non-fat dry milk, and 1 part of powdered egg yolk. Treated food was prepared by mixing an appropriate amount of a solution or suspension of CBCP in acetone with a batch of the food. The acetone was evaporated (4-6 hours) and the dry material was repulverized.
Chemosterilancy tests: If eggs were laid in the above tests, the cups were filled with water and stirred to break up the egg masses. A random sample of 100 eggs from each cup was collected and placed on a small piece of black cloth which was then laid on top of moist larva-rearing medium in a rearing container. Observations were made to determine percentage of egg hatch and pupal development.
The procedure outlined in Example 6 was followed using a Group II compound.
The procedure outlined in Example 6 was followed using Group III compounds. The results are summarized below:
The procedure outlined in Example 6 was followed substituting a Group IV compound for those of Group I. The table below provides a summary of results.

[2] = tested on: Salmonella tester strains TA-100, TA-98, TA-1537; test: Ames' Salmonella/microsome mutagenicity procedure; conditions: for revertant frequencies: 10-10,000 μg/plate in TA-100 and S-9; for mutagenic response relative to known mutagenic agents which revert this strain: TA-100 and S-9; for mutagenic activity: TA-100, TA-98, TA-1537, without or with metabolic activation
Experimental: The mutagenic activity of D, A, B, M, N, and CC were tested by the standard Ames' Salmonella/microsome procedure, which is reported to show better than 90% correlation with development of mammalian cancers (Ames et al., Mutation Research, Vol. 31, p. 347, 1975; McCann et al., Proc. Nat. Acad. Sci., Vol. 72, p. 5135, 1975). Tester strains TA-100, TA-98, TA-1537 and the plate test method were used, employing concentrations of 10, 100, 1000, and 10,000 […]. The metabolic activation mixture (S-9 mix) used the 9000 times g supernatant of Arochlor-1254-induced rat liver homogenate at a level of 100 μl per ml of S-9 mix.

flies (family Muscidae) [3] = test: Oviposition inhibition tests (treated fly food; Examples 6-9); assay type: in vivo
Experimental: The compound to be tested was administered in a standard fly food containing 6 parts of sugar, 6 parts of powdered non-fat dry milk, and 1 part of powdered egg yolk. Treated food was prepared by mixing an appropriate amount of a solution or suspension of CBCP in acetone with a batch of the food. The acetone was evaporated (4-6 hours) and the dry material was repulverized. Oviposition inhibition tests: Samples of treated food with a container of water were placed in cages containing 100 newly-emerged adult flies (family Muscidae). After the flies had been exposed to the treated diet for 6-7 days, 1/2 inch of moist standard fly larva-rearing medium (CSMA) in souffle cups was placed in the cages for oviposition. After 4-6 hours, the cup was removed and examined for eggs. […] The procedure outlined in Example 6 was followed using a Group II compound. The procedure outlined in Example 6 was followed using Group III compounds. The results are summarized below: The procedure outlined in Example 6 was followed substituting a Group IV compound for those of Group I. The table below provides a summary of results.

Solubility in water = assay type: physicochemical
screwworm flies = test: Anti-procreant tests on screw-worm fly; assay type: in vivo
Experimental: These tests were conducted on mass-reared screwworm flies which had been obtained as pupae from the screwworm fly plant at Mission, Texas. The flies were held in cages with water and undiluted corn syrup in a colony room maintained at about 27° C. and 60% relative humidity (RH) with a 12-hour photoperiod beginning at 6 a.m. Adults that emerged were lightly anesthetized with CO2 for ease of manipulation the same day.
The mixtures obtained were fed to the flies in "Dixie" paper cups, 7 cm diameter, and rice hulls were placed on the surface of the food to prevent the flies from getting stuck in the viscous mixture.
Initially, varying concentrations of a chemosterilant were fed to the flies for the first 5 days of life. Thereafter, the chemosterilant was replaced with pure corn syrup. On the 7th day, 3 replicates of 10 flies were stimulated to oviposit and the flies which oviposited were checked for insemination by an examination of the spermathecae for live sperms. The total number of eggs per fly was estimated and the hatchability of these eggs (fertility) was determined 24 hours later (at 37° C.). Observations were made to determine percentage of egg hatch.

mice = test: Oral toxicity in mice; conditions: mouse, in vivo, po
Experimental: (§2) Compounds D, A, and B were also assayed for oral toxicity in mice.

Oral toxicity in mice = conditions: mouse, in vivo; oral, mice; read-out: Estimated LD50
Experimental: as §2

[4] = tested on: early fourth-stage larvae of the common malaria mosquito (Anopheles quadrimaculatus); test: Growth-inhibition tests on mosquito larvae; assay type: in vivo; conditions: in water; corrected by Abbott's formula
Experimental: The compound to be tested was added to one liter of water until the final concentration thereof was a growth-inhibiting amount. Fifty early fourth-stage larvae of the common malaria mosquito (Anopheles quadrimaculatus) were placed on this water. Larval food was administered daily. Dead larvae and pupae were removed, counted, and discarded daily. Live pupae were removed, rinsed, and transferred to a cup of distilled water. The cup was placed in an emergence cage, and the emerging adults, if any, were maintained on a sugar-water diet.
The effectiveness of the compound in inhibiting growth was determined by adding the number of dead larvae and pupae and the number of adults that were dead, unable to complete eclosion, and malformed. This sum was corrected by Abbott's formula (to adjust for the number of larvae or pupae which would die naturally) and designated as the GI (growth inhibition). The results are expressed as GI-90, i.e., the concentration of growth inhibitor in ppm that would prevent and/or retard growth in 90% of the treated larvae.

[5] = tested on: male flies (family Muscidae); test: Sterilization of treated males crossed with virgin untreated females; assay type: in vivo
Experimental: as §1
These flies were maintained on untreated fly food. After 5 days, cups containing the larval-rearing medium was provided as previously described and a 100-egg sample was collected and place on moist larve-rearing medium. About a week after oviposition, examination was made to determine the percentage of hatched eggs and of pupae developed.

| Compound | Egg hatch (flies (family Muscidae) [1]; 0.01% in food) | Pupal development (flies (family Muscidae) [1]; 0.01% in food) | Egg hatch (flies (family Muscidae) [1]; 0.025% in food) | Pupal development (flies (family Muscidae) [1]; 0.025% in food) | Egg hatch (flies (family Muscidae) [1]; 0.05% in food) | Pupal development (flies (family Muscidae) [1]; 0.05% in food) | Mortality, parent generation (flies (family Muscidae) [3]; 0.01% in food) | Mortality, parent generation (flies (family Muscidae) [3]; 0.025% in food) | Mortality, parent generation (flies (family Muscidae) [3]; 0.05% in food) | Mortality, parent generation (flies (family Muscidae) [3]; 0.1% in food) | solubility in water (Solubility in water) | Inhibition of embryogenesis (screwworm flies; 0.10% in food) | Oviposition (screwworm flies; 0.10% in food) | Survival, Female (screwworm flies; 0.10% in food) | Survival, Male (screwworm flies; 0.10% in food) | oral toxicity (in words) (mice) | Egg hatch (flies (family Muscidae) [1]; 0.25% in food) | Pupal development (flies (family Muscidae) [1]; 0.25% in food) | Mortality, parent generation (flies (family Muscidae) [3]; 0.25% in food) | Mortality, parent generation (flies (family Muscidae) [3]; 1.0% in food) | further results |
| --- | --- | --- | --- | --- | --- | --- | --- | --- | --- | --- | --- | --- | --- | --- | --- | --- | --- | --- | --- | --- | --- |
| CCOc1cc2c(cc1Cc1ccc(OC)cc1)OCO2 [M, (4-Methoxybenzyl)-3,4-methylenedioxy-6-ethoxybenzene] | 19% | 19% | 0% | 0% | 0% | 0% | 0% | 0% | 0% | 0% | low solubility in water | 99.8% | 55.0% | 88.7% | 35.0% |  |  |  |  |  | revertant frequencies [2]: exceeded the mean control value plus two or three standard deviations; mutagenic response relative to known mutagenic agents which revert this strain [2]: extremely weak |
| CC(c1ccccc1)c1cc(C(C)(C)C)cc(C(C)(C)C)c1O (stereo not drawn) [A, 4,6-Di-t-butyl-2-α-methylbenzylphenol] | 39% | 39% | 28% | 28% | 0% | 0% | 0% | 0% | 0% | 0% | low solubility in water | 100% | 90.0% | 68.0% | 47.0% | only slightly toxic | 0% | 0% | 0% |  | LD50 (Oral toxicity in mice): 2510 mg/kg; Egg hatch (flies (family Muscidae) [1]; 0.1% in food): 0%; Pupal development (flies (family Muscidae) [1]; 0.1% in food): 0%; GI-90 (concentration of growth inhibitor that would prevent and/or retard growth in 90% of the treated larvae) [4]: 0.039 ppm; mutagenic activity [2]: non-mutagenic; Inhibition of embryogenesis (screwworm flies; 0.01% in food): 100%; Oviposition (screwworm flies; 0.01% in food): 63.3%; Survival, Female (screwworm flies; 0.01% in food): 71.3%; Survival, Male (screwworm flies; 0.01% in food): 54.0% |
| COc1ccc(Cc2cc(C(C)(C)C)cc(C(C)(C)C)c2O)cc1 [C, 4,6-Di-t-butyl-2-(4-methoxybenzyl)phenol] | 45% | 45% | 0% | 0% | 0% | 0% | 0% | 0% | 0% | 0% | low solubility in water | 100% | 75.0% | 66.0% | 63.0% |  | 0% | 0% | 0% | 0% | Egg hatch (flies (family Muscidae) [1]; 0.1% in food): 0%; Pupal development (flies (family Muscidae) [1]; 0.1% in food): 0%; Oviposition (flies (family Muscidae) [3]; 0.25% in food): Normal; Mortality, parent generation (flies (family Muscidae) [3]; 0.5% in food): 0%; Oviposition (flies (family Muscidae) [3]; 0.5% in food): None; Oviposition (flies (family Muscidae) [3]; 1.0% in food): None; sterilization of males ([5]; 0.25% in food): 100% |
| C=CCc1cc2c(cc1Cc1ccc(OC)cc1)OCO2 [CC, (4-Methoxybenzyl)-3,4-methylenedioxy-6-(2-propenyl)benzene] | 15% | 15% | 0% | 0% |  |  | 0% | 0% | 0% | 0% | low solubility in water | 100% | 65.0% | 92.7% | 45.0% |  |  |  | 50% |  | GI-90 (concentration of growth inhibitor that would prevent and/or retard growth in 90% of the treated larvae) [4]: 0.2 ppm; mutagenic activity [2]: non-mutagenic |
| CCCOc1cc2c(cc1C(C)c1ccc(OC)cc1)OCO2 (stereo not drawn) [I, (α-Methyl-4-methoxybenzyl)-3,4-methylenedioxy-6-n-propoxybenzene] | 63% | 63% | 38% | 38% |  |  | 0% | 0% |  |  |  |  |  |  |  |  |  |  |  | 0% | GI-90 (concentration of growth inhibitor that would prevent and/or retard growth in 90% of the treated larvae) [4]: 0.042 ppm; sterilization of males ([5]; 1.0% in food): 100% |
| CC(C)(C)c1cc(Cc2ccccc2)c(O)c(C(C)(C)C)c1 [D, 2,4-Di-t-butyl-6-benzylphenol] |  |  |  |  | 90% | 90% |  |  | 0% | 0% | low solubility in water | 100% | 95.0% | 88.7% | 55.0% | only slightly toxic | 0% | 0% | 0% | 0% | LD50 (Oral toxicity in mice): 3430 mg/kg; Egg hatch (flies (family Muscidae) [1]; 0.1% in food): 0%; Pupal development (flies (family Muscidae) [1]; 0.1% in food): 0%; Egg hatch (flies (family Muscidae) [1]; 0.5% in food): 0%; Pupal development (flies (family Muscidae) [1]; 0.5% in food): 0%; Egg hatch (flies (family Muscidae) [1]; 1.0% in food): 0%; Pupal development (flies (family Muscidae) [1]; 1.0% in food): 0%; revertant frequencies [2]: exceeded the mean control value plus two or three standard deviations; mutagenic response relative to known mutagenic agents which revert this strain [2]: extremely weak; Mortality, parent generation (flies (family Muscidae) [3]; 0.5% in food): 0%; Inhibition of embryogenesis (screwworm flies; 0.01% in food): 95.2%; Oviposition (screwworm flies; 0.01% in food): 66.7%; Survival, Female (screwworm flies; 0.01% in food): 49.3%; Survival, Male (screwworm flies; 0.01% in food): 46.0%; sterilization of males ([5]; 1.0% in food): 100% |
| COc1ccc(C(C)c2cc(C(C)(C)C)cc(C(C)(C)C)c2O)cc1 (stereo not drawn) [B, 4,6-di-t-butyl-2-(α-methyl-4-methoxybenzyl)phenol] |  |  |  |  |  |  |  |  |  |  |  |  |  |  |  | only slightly toxic | 18% | 18% | 0% | 0% | LD50 (Oral toxicity in mice): 3550 mg/kg; Egg hatch (flies (family Muscidae) [1]; 0.5% in food): 0%; Pupal development (flies (family Muscidae) [1]; 0.5% in food): 0%; Egg hatch (flies (family Muscidae) [1]; 1.0% in food): 0%; Pupal development (flies (family Muscidae) [1]; 1.0% in food): 0%; mutagenic activity [2]: non-mutagenic; Mortality, parent generation (flies (family Muscidae) [3]; 0.5% in food): 0% |
